The source of these data is US9173841B2, “Polymer nanoparticle injection formulation composition containing rapamycin with improved water solubility, preparation method thereof, and anticancer composition for combined use with radiotherapy” (SAMYANG BIOPHARMACEUTICALS CORPORATION, priority 2009, dated 2015).

The nature of series [1]: Experiment 4: in vivo pharmacokinetic behavior, rapamycin level in blood. Also noted: species or system male Sprague-Dawley rats. Particulars: rats, intravenous administration. The protocol:
The in vivo pharmacokinetic behavior of the rapamycin-entrapping nanoparticle composition of Example 1 was evaluated. For animal experiment, male Sprague-Dawley rats weighing 210 to 250 g were used, and 0.3 ml of whole blood was taken from caudal vein every 5, 15 and 30 minutes, and 1, 2, 4, 8 and 24 hours after intravenous and subcutaneous injection of the dose of 5 mg/kg, on the basis of rapamycin. The collected whole blood was treated with the Protein Precipitation (PPT, Progress in Pharmaceutical and Biomedical Analysis, Volume 5, 2003, Pages 199-254) and then centrifuged to obtain 0.15 ml of clear supernatant which was analyzed to check the rapamycin concentration in blood by LC/MS/MS method.
The in vivo pharmacokinetic behavior of the rapamycin-entrapping nanoparticle composition of Example 2 was evaluated by means of the same method as in Experiment 1. However, the composition was administered via oral, intravenous or subcutaneous route in the dose of 10 mg/kg on the basis of rapamycin, and 0.3 ml of whole blood was taken from caudal vein every 15 and 30 minutes, and 1, 2, 4, 8, 24 and 48 hours after administration.

For series [2] the following is noted: cited from earlier work.
The mark [3] stands for this setting: male, Sprague-Dawley, rat, whole blood, 10 mg/kg.

As usually defined, the AUC(0-t) is the area under the concentration-time curve up to a stated or last time point. Low readings indicate less exposure, high ones more exposure. One may read the AUC(0-inf) as total exposure, with the tail of the curve extrapolated. A higher AUC(0-inf) goes with high exposure. As usually defined, the Cmax is the highest concentration seen after dosing. The term Tmax denotes the time from dosing to the highest level. What is called half-life is how long it takes for the measured level to halve.

On to `CO[C@H]1C[C@@H]2CC[C@@H](C)[C@@](O)(O2)C(=O)C(=O)N2CCCC[C@H]2C(=O)O[C@H]([C@H](C)C[C@@H]2CC[C@@H](O)[C@H](OC)C2)CC(=O)[C@H](C)/C=C(\C)[C@@H](O)[C@@H](OC)C(=O)[C@H](C)C[C@H](C)/C=C/C=C/C=C/1C` [rapamycin, Rapamycin], for which the exposure AUC(0-t) in series [1] (male, Sprague-Dawley, rat, whole blood, 10 mg/kg on the basis of rapamycin) turned out to be 5370 ng·h/mL. In addition, in series [1] (setting [3]), the area under the curve AUC(0-inf) is 5600 ng·h/mL, the maximum concentration (Cmax) was found to be 2890 ng/mL, the Tmax is 0.25 h and the half-life is 10.5 h. In series [1] (10 mg/kg, free sirolimus intravenous = 100), this molecule came in with an F of 100%. Moreover, in series [2], the solubility in water is 1 to 2 µg/mL.
